The values below come from US6646137B1, “Non-peptide GnRH agents” (priority 1998, dated 2003).

Read-outs that look alike come from different tables or passages of the source.

This test concerns the target T1, human GnRH receptor (Homo sapiens, UniProt P30968).
T1 construct: The cDNA for the human GnRH receptor is cloned into the plasmid expression vector, pcDNA 3; expressed in transfected cells; host or cells: HEK 293 cells, stably transfected (pcDNA 3); membrane preparation
T1 sequence (P30968 1-328): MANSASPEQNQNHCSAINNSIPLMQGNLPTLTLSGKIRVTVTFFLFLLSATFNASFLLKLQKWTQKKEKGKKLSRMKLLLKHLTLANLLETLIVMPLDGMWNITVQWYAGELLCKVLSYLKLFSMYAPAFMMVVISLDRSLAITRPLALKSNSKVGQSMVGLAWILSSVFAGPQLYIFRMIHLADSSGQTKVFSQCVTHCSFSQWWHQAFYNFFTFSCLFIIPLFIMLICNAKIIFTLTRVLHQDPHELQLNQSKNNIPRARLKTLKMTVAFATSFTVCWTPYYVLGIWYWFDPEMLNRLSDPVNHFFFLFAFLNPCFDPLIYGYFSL
Nature of the test: GnRH receptor competitive radioligand binding assay (125I-GnRH-A, HEK 293 cell membranes). The note with it: compound at 10 μM. The source says:
The cDNA for the human GnRH receptor is cloned into the plasmid expression vector, pcDNA 3 (In Vitrogen), and stably transfected in HEK 293 cells (a cell line developed by Dr. Stuart Sealfon, Mount Sinai Medical School, New York, N.Y.).
The human GnRH receptor (hGnRH) is cloned into pcDNA 3 (In Vitrogen), which provides high-level expression and a neomycin resistance marker. Lipofectamine (GIBCO BRL) is used to transfect HEK 293 cells with plasmid DNA. This method involves mixing the plasmid and reagent in serum-free medium, allowing DNA-liposome complexes to form, and overlaying cells with this solution. The HEK 293 cells are plated (seeded) on a 10-cm tissue culture dish at a density of 3×10^6 cells/dish the day before transfection. For each plate, 8 μg DNA plus 0.8 mL serum-free medium is mixed with 48 μL lipofectamine plus 0.8 mL serum-free medium, followed by incubation for 30 minutes at room temperature to allow DNA-liposome complexes to form. Serum-free medium is added to give a final volume of 6 mL/plate. The cells are rinsed twice with serum-free medium and overlayed with the DNA-liposome mixture. Five hours after transfection, an equal volume (6 mL) of medium containing 20% FBS (fetal bovine serum) is added. The cells are fed with fresh complete medium 18-24 hours after transfection. The cells are split 72 hours following transfection, at densities of 1:10 and 1:20. Stable tranformants are selected for by growth of the cells in antibiotic containing medium (G418, Sigma Chemical Company (also known as Geneticin)). Colonies are isolated and tested for receptor expression by radioligand binding and by measuring phosphoinositol turnover.
HEK 293 cells stably transfected with human GnRH receptors as described above are grown in MEM (minimal essential medium, available from Sigma Chemical Company) supplemented with 0.1% G418 (Sigma Chemical Company). Cells are homogenized in buffer A containing 50 mM Tris (pH 74.), 0.32M sucrose, 2 mM ethyleneglycol-bis(β-aminoethyl)-N,N,N′,N′-tetraacetic acid (EGTA), 1 mM phenylmethylsulfonyl fluoride (PMSF), 5 μg/mL aprotinen, 5 μg/mL Pepstatin A, and 1 μg/mL leupeptin. The homogenized cells are centrifuged at 4° C. at 20,000×g for 25 minutes, resuspended in buffer A, and recentrifuged at 4° C. at 20,000×g for an additional 25 minutes. Total membrane protein is determined with a BCA kit (Pierce, Rockford, Ill.). Membranes are stored at −70° C. at a final membrane protein concentration of 5 mg/mL.
The radioiodinated agonist analog of GnRH, [des-Gly^10, D-Ala^8]GnRH ethylamide (GnRH-A), is used as the labeled ligand. One μg of GnRH-A diluted in 0.1M acetic acid is added to an lodogen®-coated borosilicate glass tube pierce) containing 35 μL of 0.05M phosphate buffer (pH 7.4-7.6) and 1 mCi of Na[^125I]. The reaction mixture is vortexed and incubated for 1 minute at room temperature. After one minute, the mixture is vortexed again and allowed to incubate for an additional minute. Two mL of 0.5M acetic acid/1% BSA is added to the reaction tube, and the mixture is added to a C18 Sep-Pak cartridge. The cartridge is washed with subsequent washes of 5 mL H2O and 5 mL 0.5M acetic acid, and then eluted with 5×1 mL of 60% CH3CN/40% 0.5M acetic acid. The eluant is diluted with 3×volume of HPLC buffer A (0.1% TFA in H2O) and loaded onto a C18 column. The iodinated product is eluted over 20-25 minutes with a gradient of 25-100% CH3CN containing 0.1% TFA. The radioactive fractions (750 μL/fraction) are collected into clean polypropylene tubes containing 10 μL of 10% BSA. Fractions are assessed for biological activity by radioligand binding. Active fractions are utilized to screen the compounds for competitive binding assays.
HEK 293 cell membranes stably expressing hGnRHR (human GnRH receptors) are diluted to 0.5-1.0 mg/mL with assay buffer containing 50 mM HEPES (pH 7.4), 1 mM ethylenediarninetetraacetic acid (EDTA), 2.5 mM MgCl2, and 0.1% BSA. […]

The mark [1] stands for this setting: average of 1st and 2nd test, read-out: Average % Remaining (percent of specific binding remaining).
[2] abbreviates: crude compounds, 125I-GnRH-A, lower value = higher inhibition, read-out: % Remaining 1st Test (percent of specific binding remaining).
The mark [3] stands for this setting: crude compounds, 125I-GnRH-A, lower value = higher inhibition, read-out: % Remaining 2nd Test (percent of specific binding remaining).

As for `N=C(N)NCC1CCC(CN(CC23CC=CCC2C2CC=CCC2O3)C(=O)c2cc3ccccc3s2)CC1` (stereo not drawn) [Compound 78], the remaining activity at 10 µM amounted to 59% under setting [1], 59% under setting [2] and 58% under setting [3].

For `CC(C)(C)c1ccc(CN(CC2CCCC(CNC(=N)N)C2)C(=O)c2ccccc2)cc1` (stereo not drawn) [Compound 44], the remaining activity at 10 µM came to 60% under setting [1], 58% under setting [2] and 62% under setting [3].

With `N=C(N)NCc1cccc(CN(CC23CC=CCC2C2CC=CCC2O3)C(=O)C2CCCCC2)c1` (stereo not drawn) [Compound 37], the remaining activity at 10 µM stood at 60% under setting [1], 59% under setting [2] and 61% under setting [3].

In the case of `N=C(N)NCc1ccc(CN(CC23CC=CCC2C2CC=CCC2O3)C(=O)c2cccs2)cc1` (stereo not drawn) [Compound 6], the remaining activity at 10 µM worked out at 46% under setting [1], 47% under setting [2] and 45% under setting [3].

As to `Cc1cc(C(=O)N(Cc2cc3c(cc2C)C(C)(C)CCC3(C)C)CC2CCC(CNC(=N)N)CC2)n(C(C)(C)C)n1` (stereo not drawn) [Compound 105], the remaining activity at 10 µM by setting is: under setting [1], 56%; under setting [2], 56%; under setting [3], 56%.

For `Cc1cc2c(cc1CN(Cc1ccc(CNC(=N)N)cc1)C(=O)c1ccco1)C(C)(C)CCC2(C)C` [Compound 13], the remaining activity at 10 µM turned out to be 13% under setting [1], 14% under setting [2] and 11% under setting [3].

In the case of `Cc1cc2c(cc1CN(CC1CCCC(CNC(=N)N)C1)C(=O)c1cccc3ccccc13)C(C)(C)CCC2(C)C` (stereo not drawn) [Compound 53], the remaining activity at 10 µM under setting [1] was determined as 51%, the remaining activity at 10 µM under setting [2] came to 46% and the remaining activity at 10 µM under setting [3] is 55%.

Turning to `Cc1cc2c(cc1CN(CC1CCC(CNC(=N)N)CC1)C(=O)C1CCCC1)C(C)(C)CCC2(C)C` (stereo not drawn) [Compound 85], the remaining activity at 10 µM under setting [1] is 51%, the remaining activity at 10 µM under setting [2] came out at 52% and the remaining activity at 10 µM under setting [3] was determined as 50%.

Turning to `Cc1cc2c(cc1CN(CC1CCC(CNC(=N)N)CC1)C(=O)c1cnn(-c3ccccc3)c1C(F)(F)F)C(C)(C)CCC2(C)C` (stereo not drawn) [Compound 118], the remaining activity at 10 µM under setting [1] is 60%, the remaining activity at 10 µM under setting [2] stood at 62% and the remaining activity at 10 µM under setting [3] stood at 58%.

Regarding `N=C(N)NCc1ccc(CN(CC23CC=CCC2C2CC=CCC2O3)C(=O)c2ccc3ccccc3c2)cc1` (stereo not drawn) [Compound 5], the remaining activity at 10 µM is, setting by setting: under setting [1], 37%; under setting [2], 31%; under setting [3], 33%.

Consider `N=C(N)NCc1ccc(CN(CC23CC=CCC2C2CC=CCC2O3)C(=O)c2ccco2)cc1` (stereo not drawn) [Compound 7], for which the remaining activity at 10 µM came out at 53% under setting [1], 51% under setting [2] and 55% under setting [3].

Take `N=C(N)NCC1CCCC(CN(Cc2ccc3c(c2)OCCO3)C(=O)c2cccc3ccccc23)C1` (stereo not drawn) [Compound 65]: the remaining activity at 10 µM reads like this: under setting [1], 55%; under setting [2], 50%; under setting [3], 59%.

Turning to `N=C(N)NCC1CCCC(CN(Cc2ccc(OCc3ccccc3)c(OCc3ccccc3)c2)C(=O)c2ccccc2)C1` (stereo not drawn) [Compound 62], the remaining activity at 10 µM was found to be 52% under setting [1], 49% under setting [2] and 55% under setting [3].

Turning to `CC(C)(C)c1ccc(CN(CC2CCCC(CNC(=N)N)C2)C(=O)c2cccc3ccccc23)cc1` (stereo not drawn) [Compound 41], the remaining activity at 10 µM came to 45% under setting [1], 46% under setting [2] and 43% under setting [3].

Consider `Cc1cc2c(cc1CN(CC1CCCC(CNC(=N)N)C1)C(=O)c1ccccc1)C(C)(C)CCC2(C)C` (stereo not drawn) [Compound 56], for which the remaining activity at 10 µM came out at 58% under setting [1], 56% under setting [2] and 60% under setting [3].

With `N=C(N)NCC1CCCC(CN(CC23CC=CCC2C2CC=CCC2O3)C(=O)c2ccc3ccccc3c2)C1` (stereo not drawn) [Compound 48], the remaining activity at 10 µM runs as follows: under setting [1], 44%; under setting [2], 48%; under setting [3], 40%.

For `N=C(N)NCC1CCCC(CN(Cc2ccc3c(c2)OCCO3)C(=O)c2ccc3ccccc3c2)C1` (stereo not drawn) [Compound 66], the remaining activity at 10 µM runs as follows: under setting [1], 54%; under setting [2], 50%; under setting [3], 57%.

Take `N=C(N)NCCCCN(Cc1ccc(OCc2ccccc2)c(OCc2ccccc2)c1)C(=O)c1cccc2ccccc12` [Compound 34]: the remaining activity at 10 µM worked out at 51% under setting [1], 45% under setting [2] and 57% under setting [3].

Consider `CC(=O)N(Cc1ccc(CNC(=N)N)cc1)Cc1cc2c(cc1C)C(C)(C)CCC2(C)C` [Compound 15], for which the remaining activity at 10 µM under setting [1] came out at 59%, the remaining activity at 10 µM under setting [2] amounted to 58% and the remaining activity at 10 µM under setting [3] stood at 60%.

`N=C(N)NCc1ccc(CN(CC23CC=CCC2C2CC=CCC2O3)C(=O)c2ccc(Cl)nc2)cc1` (stereo not drawn) [Compound 9]: the remaining activity at 10 µM was found to be 52% under setting [1], 51% under setting [2] and 53% under setting [3].

In the case of `CC(=O)O[C@@H](C)C(=O)N(Cc1cc2c(cc1C)C(C)(C)CCC2(C)C)CC1CCC(CNC(=N)N)CC1` (stereo partly drawn) [Compound 119], the remaining activity at 10 µM was 57% under setting [1], 57% under setting [2] and 57% under setting [3].

As for `CC(C)(C)c1ccc(CN(CC2CCCC(CNC(=N)N)C2)C(=O)c2ccc3ccccc3c2)cc1` (stereo not drawn) [Compound 42], the remaining activity at 10 µM was determined as 58% under setting [1], 54% under setting [2] and 62% under setting [3].

As for `Cc1cc2c(cc1CN(CC1CCCC(CNC(=N)N)C1)C(=O)c1ccc(Cl)nc1)C(C)(C)CCC2(C)C` (stereo not drawn) [Compound 58], the remaining activity at 10 µM under setting [1] worked out at 59%, the remaining activity at 10 µM under setting [2] came out at 57% and the remaining activity at 10 µM under setting [3] worked out at 60%.

For the molecule `Cc1cc2c(cc1CN(CC1CCC(CNC(=N)N)CC1)C(=O)Cc1ccccc1)C(C)(C)CCC2(C)C` (stereo not drawn) [Compound 102], the remaining activity at 10 µM under setting [1] stood at 60%, the remaining activity at 10 µM under setting [2] came to 66% and the remaining activity at 10 µM under setting [3] worked out at 54%.

For `Cc1cc2c(cc1CN(CCCCNC(=N)N)C(=O)c1ccc3ccccc3c1)C(C)(C)CCC2(C)C` [Compound 29], the remaining activity at 10 µM under setting [1] is 57%, the remaining activity at 10 µM under setting [2] turned out to be 53% and the remaining activity at 10 µM under setting [3] came to 61%.
